What was measured:
PKMYT1 = target: T1, PKMYT1 (Homo sapiens, UniProt Q99640); assay: biochemical; conditions: read-out: % enzyme activity, 1 μM; Run 1, Run 2
T1 sequence (Q99640 1-499): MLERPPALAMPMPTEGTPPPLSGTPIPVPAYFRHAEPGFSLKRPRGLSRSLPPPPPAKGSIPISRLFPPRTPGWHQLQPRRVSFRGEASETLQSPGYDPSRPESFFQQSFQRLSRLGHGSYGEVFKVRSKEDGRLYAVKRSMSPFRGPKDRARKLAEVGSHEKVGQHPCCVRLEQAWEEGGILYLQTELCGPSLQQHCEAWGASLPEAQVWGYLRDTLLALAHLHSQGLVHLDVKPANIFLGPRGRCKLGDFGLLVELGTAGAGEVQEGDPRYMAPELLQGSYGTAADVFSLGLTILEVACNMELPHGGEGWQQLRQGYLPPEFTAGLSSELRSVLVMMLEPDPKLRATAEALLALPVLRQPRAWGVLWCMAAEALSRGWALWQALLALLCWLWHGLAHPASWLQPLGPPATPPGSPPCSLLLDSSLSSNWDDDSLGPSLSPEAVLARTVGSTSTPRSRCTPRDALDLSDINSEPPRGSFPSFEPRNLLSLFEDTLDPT

CAMKK1 = CAMKK1 (Homo sapiens, UniProt Q8N5S9); assay: biochemical; conditions: read-out: % enzyme activity, 1 μM; Run 1, Run 2
BRK = BRK (Homo sapiens, UniProt Q13882); conditions: 1 μM; Run 1, Run 2
CDK2/cyclin O = CDK2/cyclin O (Homo sapiens, UniProt P24941); conditions: 1 μM; Run 1, Run 2
FGFR1 = FGFR1 (Homo sapiens, UniProt P11362); conditions: 1 μM; Run 1, Run 2
FGR = FGR (Homo sapiens, UniProt P09769); assay: biochemical; conditions: read-out: % enzyme activity, 1 μM; Run 1, Run 2
CDK19/cyclin C = CDK19/cyclin C (Homo sapiens, UniProt Q9BWU1); conditions: 1 μM; Run 1, Run 2
CDK19/cyclin C, sequence (Q9BWU1 whole entry): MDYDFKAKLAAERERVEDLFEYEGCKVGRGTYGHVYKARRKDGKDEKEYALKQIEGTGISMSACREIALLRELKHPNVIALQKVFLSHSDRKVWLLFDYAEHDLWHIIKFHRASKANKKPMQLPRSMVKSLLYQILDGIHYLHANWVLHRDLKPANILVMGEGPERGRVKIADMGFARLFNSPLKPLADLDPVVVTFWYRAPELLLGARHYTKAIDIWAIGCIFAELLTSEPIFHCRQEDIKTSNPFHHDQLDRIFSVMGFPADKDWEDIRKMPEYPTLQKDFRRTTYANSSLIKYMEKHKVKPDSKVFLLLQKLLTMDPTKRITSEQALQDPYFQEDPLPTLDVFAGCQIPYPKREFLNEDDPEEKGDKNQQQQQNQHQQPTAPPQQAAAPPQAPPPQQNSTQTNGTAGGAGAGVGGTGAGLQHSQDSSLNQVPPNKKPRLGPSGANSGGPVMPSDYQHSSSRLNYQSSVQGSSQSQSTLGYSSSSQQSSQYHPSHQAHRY
CDK19/cyclin C, sequence (P24863 whole entry partner): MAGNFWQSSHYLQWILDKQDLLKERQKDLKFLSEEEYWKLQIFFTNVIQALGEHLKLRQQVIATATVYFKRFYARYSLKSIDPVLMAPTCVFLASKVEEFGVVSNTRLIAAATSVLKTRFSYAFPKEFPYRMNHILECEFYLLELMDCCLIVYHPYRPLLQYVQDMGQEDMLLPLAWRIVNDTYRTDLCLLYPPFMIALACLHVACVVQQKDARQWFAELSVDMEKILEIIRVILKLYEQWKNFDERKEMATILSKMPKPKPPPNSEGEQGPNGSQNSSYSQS

RIPK2 = RIPK2 (Homo sapiens, UniProt O43353); conditions: 1 μM; Run 1, Run 2
RIPK2, sequence (O43353 whole entry): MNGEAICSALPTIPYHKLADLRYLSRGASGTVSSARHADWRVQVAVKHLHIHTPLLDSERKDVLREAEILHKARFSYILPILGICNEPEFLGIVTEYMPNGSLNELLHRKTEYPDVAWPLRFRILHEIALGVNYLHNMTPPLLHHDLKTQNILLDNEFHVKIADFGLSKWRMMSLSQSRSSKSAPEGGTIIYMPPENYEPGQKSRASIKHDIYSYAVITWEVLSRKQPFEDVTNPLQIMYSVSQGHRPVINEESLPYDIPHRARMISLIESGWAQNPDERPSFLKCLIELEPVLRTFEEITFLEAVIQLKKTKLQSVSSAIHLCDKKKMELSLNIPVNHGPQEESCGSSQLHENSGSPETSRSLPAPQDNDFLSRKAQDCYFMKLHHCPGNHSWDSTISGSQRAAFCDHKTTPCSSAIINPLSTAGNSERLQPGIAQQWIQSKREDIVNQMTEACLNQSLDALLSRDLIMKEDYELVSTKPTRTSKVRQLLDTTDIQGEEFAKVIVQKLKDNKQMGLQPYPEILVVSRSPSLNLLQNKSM

CDK8/cyclin C = CDK8/cyclin C (Homo sapiens, UniProt P49336); assay: biochemical; conditions: read-out: % enzyme activity, 1 μM; Run 1, Run 2
CDK2/Cyclin A1 = CDK2/Cyclin A1 (Homo sapiens, UniProt P24941); conditions: 1 μM; Run 1, Run 2
IKKe/IKBKE = target: T2, IKKe/IKBKE (Homo sapiens, UniProt Q14164); conditions: 1 μM; Run 1, Run 2
T2 sequence (Q14164 1-716): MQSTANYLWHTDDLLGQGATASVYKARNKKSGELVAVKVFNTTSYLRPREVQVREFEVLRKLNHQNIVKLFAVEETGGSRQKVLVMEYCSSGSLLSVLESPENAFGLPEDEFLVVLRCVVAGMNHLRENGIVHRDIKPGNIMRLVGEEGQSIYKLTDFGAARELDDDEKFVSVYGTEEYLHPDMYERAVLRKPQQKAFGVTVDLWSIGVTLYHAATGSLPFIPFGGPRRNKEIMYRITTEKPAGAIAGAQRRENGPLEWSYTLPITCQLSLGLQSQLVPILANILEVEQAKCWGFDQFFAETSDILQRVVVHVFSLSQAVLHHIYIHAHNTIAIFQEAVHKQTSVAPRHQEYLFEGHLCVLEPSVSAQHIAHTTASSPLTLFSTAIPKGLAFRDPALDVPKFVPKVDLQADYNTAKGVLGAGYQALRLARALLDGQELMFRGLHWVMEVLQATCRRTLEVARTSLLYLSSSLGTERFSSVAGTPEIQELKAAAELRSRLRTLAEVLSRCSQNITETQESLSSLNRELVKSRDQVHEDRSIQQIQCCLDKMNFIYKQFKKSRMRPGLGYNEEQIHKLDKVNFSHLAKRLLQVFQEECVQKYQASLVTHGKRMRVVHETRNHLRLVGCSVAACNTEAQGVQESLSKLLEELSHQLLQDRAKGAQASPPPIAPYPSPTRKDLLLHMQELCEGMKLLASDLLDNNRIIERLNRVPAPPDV

NIM1 = NIM1 (Homo sapiens, UniProt Q8IY84); conditions: 1 μM; Run 1, Run 2
LRRK2 = LRRK2 (Homo sapiens, UniProt Q5S007); assay: biochemical; conditions: read-out: % enzyme activity, 1 μM; Run 1, Run 2
LRRK2, sequence (Q5S007 whole entry): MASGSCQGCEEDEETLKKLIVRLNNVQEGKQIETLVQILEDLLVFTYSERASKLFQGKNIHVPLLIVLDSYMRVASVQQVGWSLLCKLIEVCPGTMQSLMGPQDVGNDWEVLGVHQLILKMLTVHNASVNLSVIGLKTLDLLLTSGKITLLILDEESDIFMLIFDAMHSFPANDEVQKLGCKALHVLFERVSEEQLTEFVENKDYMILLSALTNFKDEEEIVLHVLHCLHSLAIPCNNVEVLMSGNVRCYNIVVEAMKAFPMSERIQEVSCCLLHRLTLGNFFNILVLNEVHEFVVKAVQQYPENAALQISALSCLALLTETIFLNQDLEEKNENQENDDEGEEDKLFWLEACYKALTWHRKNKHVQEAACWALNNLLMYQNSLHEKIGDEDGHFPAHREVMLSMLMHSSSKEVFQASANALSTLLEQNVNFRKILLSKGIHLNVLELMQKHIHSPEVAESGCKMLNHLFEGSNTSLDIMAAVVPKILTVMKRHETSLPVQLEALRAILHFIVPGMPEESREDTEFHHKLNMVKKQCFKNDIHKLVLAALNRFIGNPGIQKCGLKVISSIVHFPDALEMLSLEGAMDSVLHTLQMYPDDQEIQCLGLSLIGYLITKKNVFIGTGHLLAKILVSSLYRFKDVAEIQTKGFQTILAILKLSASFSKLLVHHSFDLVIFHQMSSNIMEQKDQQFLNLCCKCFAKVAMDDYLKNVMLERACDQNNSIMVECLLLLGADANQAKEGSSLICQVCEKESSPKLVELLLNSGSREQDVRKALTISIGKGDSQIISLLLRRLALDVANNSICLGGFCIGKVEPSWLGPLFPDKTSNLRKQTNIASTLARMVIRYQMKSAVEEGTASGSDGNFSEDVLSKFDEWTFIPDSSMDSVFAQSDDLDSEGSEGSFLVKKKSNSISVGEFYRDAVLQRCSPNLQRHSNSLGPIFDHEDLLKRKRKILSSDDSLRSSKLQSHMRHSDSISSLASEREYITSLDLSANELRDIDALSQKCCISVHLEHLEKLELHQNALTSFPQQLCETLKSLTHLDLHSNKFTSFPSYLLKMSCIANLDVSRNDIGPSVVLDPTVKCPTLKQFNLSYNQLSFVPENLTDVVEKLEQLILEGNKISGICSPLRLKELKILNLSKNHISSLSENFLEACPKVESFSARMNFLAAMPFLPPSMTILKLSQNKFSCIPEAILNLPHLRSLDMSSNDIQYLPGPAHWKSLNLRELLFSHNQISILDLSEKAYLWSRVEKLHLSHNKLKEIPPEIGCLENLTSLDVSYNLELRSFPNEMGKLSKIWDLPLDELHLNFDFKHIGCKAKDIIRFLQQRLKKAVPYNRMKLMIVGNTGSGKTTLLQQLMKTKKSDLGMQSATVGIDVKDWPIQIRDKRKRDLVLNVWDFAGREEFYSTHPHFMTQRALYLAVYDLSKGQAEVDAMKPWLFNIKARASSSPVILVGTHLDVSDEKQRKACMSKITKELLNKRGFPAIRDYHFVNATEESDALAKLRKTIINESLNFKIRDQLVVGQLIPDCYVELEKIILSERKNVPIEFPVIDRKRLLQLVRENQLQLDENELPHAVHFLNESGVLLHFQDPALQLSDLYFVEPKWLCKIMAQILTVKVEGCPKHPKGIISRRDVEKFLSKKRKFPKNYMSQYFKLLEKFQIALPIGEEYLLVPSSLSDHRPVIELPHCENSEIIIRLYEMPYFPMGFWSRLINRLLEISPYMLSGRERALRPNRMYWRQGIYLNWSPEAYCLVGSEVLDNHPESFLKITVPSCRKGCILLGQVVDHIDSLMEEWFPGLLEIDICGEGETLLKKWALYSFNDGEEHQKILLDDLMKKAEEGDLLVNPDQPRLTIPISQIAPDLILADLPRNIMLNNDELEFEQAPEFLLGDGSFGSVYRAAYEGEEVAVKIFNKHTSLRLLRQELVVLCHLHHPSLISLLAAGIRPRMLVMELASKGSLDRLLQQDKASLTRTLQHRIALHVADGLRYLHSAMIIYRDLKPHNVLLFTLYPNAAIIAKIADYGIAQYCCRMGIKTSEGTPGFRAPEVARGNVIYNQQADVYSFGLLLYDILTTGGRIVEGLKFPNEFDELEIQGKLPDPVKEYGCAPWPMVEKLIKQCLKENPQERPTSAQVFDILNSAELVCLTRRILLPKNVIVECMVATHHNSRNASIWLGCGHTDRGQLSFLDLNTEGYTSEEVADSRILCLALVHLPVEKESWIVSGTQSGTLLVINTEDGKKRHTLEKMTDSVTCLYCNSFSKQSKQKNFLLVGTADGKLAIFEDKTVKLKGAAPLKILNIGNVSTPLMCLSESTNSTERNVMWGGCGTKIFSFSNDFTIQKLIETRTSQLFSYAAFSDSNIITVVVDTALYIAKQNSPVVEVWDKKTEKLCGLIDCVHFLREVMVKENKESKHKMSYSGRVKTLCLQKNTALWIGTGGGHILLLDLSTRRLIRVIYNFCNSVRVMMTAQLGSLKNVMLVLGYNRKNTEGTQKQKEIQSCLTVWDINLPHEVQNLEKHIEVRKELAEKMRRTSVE

c-MET = c-MET (Homo sapiens, UniProt P08581); conditions: 1 μM; Run 1, Run 2
ACK1 = ACK1 (Homo sapiens, UniProt Q07912); assay: biochemical; conditions: read-out: % enzyme activity, 1 μM; Run 1, Run 2
PKG1a = target: T3, PKG1a (Homo sapiens, UniProt Q13976); conditions: 1 μM; Run 1, Run 2
T3 sequence (Q13976 1-671): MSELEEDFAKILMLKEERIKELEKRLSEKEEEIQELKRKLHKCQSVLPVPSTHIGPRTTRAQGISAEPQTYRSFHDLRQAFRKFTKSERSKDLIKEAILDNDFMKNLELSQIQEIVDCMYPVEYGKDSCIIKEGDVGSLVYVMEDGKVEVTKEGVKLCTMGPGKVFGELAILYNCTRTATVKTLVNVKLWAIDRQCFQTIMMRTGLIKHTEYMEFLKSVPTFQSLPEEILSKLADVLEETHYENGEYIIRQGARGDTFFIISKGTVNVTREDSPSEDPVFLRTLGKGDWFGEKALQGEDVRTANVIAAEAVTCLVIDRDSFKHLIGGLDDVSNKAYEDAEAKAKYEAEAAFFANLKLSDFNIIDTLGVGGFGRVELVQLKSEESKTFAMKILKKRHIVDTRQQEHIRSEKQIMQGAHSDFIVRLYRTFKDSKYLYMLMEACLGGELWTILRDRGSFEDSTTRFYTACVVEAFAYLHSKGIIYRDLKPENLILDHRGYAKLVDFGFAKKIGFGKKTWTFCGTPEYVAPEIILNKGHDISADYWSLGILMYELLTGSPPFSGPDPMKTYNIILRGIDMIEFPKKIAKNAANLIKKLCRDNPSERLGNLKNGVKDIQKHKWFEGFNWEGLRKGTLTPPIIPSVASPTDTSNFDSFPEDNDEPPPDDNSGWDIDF

FYN = FYN (Homo sapiens, UniProt P06241); conditions: 1 μM; Run 1, Run 2
FYN, sequence (P06241 whole entry): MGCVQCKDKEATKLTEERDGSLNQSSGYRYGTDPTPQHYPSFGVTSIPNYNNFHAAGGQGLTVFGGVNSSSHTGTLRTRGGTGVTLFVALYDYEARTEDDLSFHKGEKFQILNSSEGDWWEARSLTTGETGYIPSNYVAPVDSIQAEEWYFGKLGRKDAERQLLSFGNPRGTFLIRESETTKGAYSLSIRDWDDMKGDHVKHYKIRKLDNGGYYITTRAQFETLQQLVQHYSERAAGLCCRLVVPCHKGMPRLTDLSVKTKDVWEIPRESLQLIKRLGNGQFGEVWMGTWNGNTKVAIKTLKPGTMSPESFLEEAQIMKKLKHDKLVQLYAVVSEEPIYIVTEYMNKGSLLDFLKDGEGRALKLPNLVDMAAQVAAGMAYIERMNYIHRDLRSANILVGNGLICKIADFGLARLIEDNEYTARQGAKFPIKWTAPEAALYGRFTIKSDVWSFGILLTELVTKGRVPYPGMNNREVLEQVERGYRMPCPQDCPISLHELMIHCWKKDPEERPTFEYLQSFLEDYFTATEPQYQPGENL

CAMKK2 = CAMKK2 (Homo sapiens, UniProt Q96RR4); conditions: 1 μM; Run 1, Run 2
CAMKK2, sequence (Q96RR4 whole entry): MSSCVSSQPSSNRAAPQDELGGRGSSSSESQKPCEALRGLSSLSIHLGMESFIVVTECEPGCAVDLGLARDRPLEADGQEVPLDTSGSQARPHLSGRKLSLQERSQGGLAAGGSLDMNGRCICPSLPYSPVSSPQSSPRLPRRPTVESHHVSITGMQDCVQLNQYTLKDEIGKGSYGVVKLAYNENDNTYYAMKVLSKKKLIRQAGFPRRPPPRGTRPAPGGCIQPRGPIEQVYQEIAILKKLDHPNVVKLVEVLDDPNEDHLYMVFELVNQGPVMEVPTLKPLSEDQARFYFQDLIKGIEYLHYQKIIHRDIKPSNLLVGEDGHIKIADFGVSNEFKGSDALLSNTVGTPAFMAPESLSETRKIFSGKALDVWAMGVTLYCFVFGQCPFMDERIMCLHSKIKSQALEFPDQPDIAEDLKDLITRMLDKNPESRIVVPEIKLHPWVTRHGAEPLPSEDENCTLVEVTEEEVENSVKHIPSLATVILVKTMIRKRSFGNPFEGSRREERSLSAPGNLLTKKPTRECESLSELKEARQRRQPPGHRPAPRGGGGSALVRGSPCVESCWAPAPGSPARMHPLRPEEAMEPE

COc1cc(-c2cncc(-c3ccc(N4CCN(C)CC4)cc3)c2C)cc(F)c1C(N)=O [Compound 26a, 2-Fluoro-6-methoxy-4-(4-methyl-5-(4-(4-methylpiperazin-1-yl)phenyl)pyridin-3-yl)benzamide]
remaining activity at 1 µM (PKMYT1): 101% | remaining activity at 1 µM (CAMKK1): 94.7% | % enzyme activity (BRK): 58.28% | % enzyme activity (CDK2/cyclin O): 93.78% | % enzyme activity (FGFR1): 96.52% | remaining activity at 1 µM (FGR): 83.1% | % enzyme activity (CDK19/cyclin C): 77.81% | % enzyme activity (RIPK2): 66.31% | remaining activity at 1 µM (CDK8/cyclin C): 84.6% | % enzyme activity (CDK2/Cyclin A1): 99.67% | % enzyme activity (IKKe/IKBKE): 87.51% | % enzyme activity (NIM1): 95.18% | remaining activity at 1 µM (LRRK2): 60.1% | % enzyme activity (c-MET): 98.28% | remaining activity at 1 µM (ACK1): 65.5% | % enzyme activity (PKG1a): 97.81% | % enzyme activity (FYN): 97.69% | % enzyme activity (CAMKK2): 70.52%

COc1cc(-c2cncc(-c3ccc(N4C[C@@H](C)N(C)[C@@H](C)C4)cc3)c2C)cc(F)c1C(N)=O [Compound 26c, 2-Fluoro-6-methoxy-4-(4-methyl-5-(4-((3R,5S)-3,4,5-trimethylpiperazin-1-yl)phenyl)pyridin-3-yl)benzamide]
remaining activity at 1 µM (PKMYT1): 94.5% | remaining activity at 1 µM (CAMKK1): 94% | % enzyme activity (BRK): 73.52% | % enzyme activity (CDK2/cyclin O): 88.53% | % enzyme activity (FGFR1): 99.91% | remaining activity at 1 µM (FGR): 89.4% | % enzyme activity (CDK19/cyclin C): 85.09% | % enzyme activity (RIPK2): 89.10% | remaining activity at 1 µM (CDK8/cyclin C): 93.1% | % enzyme activity (CDK2/Cyclin A1): 97.14% | % enzyme activity (IKKe/IKBKE): 94.75% | % enzyme activity (NIM1): 97.81% | remaining activity at 1 µM (LRRK2): 78.3% | % enzyme activity (c-MET): 106.76% | remaining activity at 1 µM (ACK1): 79.5% | % enzyme activity (PKG1a): 101.45% | % enzyme activity (FYN): 96.30% | % enzyme activity (CAMKK2): 75.78%

— publication PMC8213057, “Targeting ALK2: An Open Science Approach to Developing Therapeutics for the Treatment of Diffuse Intrinsic Pontine Glioma” (Journal of Medicinal Chemistry, 2020)
